Structures are written as SMILES.

The assay deals with T1, GlyT1 (Homo sapiens, UniProt P48067).
T1 construct: expressed in transfected cells
T1 sequence (P48067 1-706): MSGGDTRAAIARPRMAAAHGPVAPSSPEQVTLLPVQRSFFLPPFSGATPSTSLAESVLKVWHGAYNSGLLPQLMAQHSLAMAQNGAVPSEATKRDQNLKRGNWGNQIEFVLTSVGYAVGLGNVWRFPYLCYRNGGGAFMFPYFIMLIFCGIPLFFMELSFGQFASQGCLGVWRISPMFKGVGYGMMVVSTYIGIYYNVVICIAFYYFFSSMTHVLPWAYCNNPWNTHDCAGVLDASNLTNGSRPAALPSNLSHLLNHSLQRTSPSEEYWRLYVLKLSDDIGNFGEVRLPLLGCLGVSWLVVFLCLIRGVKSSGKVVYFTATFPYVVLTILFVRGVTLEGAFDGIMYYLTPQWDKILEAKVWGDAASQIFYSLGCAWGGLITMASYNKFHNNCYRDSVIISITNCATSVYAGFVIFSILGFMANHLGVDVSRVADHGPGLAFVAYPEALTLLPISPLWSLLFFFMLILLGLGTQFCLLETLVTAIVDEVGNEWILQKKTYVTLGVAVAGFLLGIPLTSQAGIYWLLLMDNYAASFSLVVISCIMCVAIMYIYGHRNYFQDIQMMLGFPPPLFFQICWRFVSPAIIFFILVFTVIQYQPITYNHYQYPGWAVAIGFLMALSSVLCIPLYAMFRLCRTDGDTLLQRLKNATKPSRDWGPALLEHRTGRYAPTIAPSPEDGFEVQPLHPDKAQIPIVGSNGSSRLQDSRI
As to the kind of experiment: Glycine Transporter 1 (GlyT1) uptake assay, scintillation proximity assay of [14C]-glycine uptake. In kind it is cell-based. To be noted: SPA, four parameter logistic fit, read-out: GlyT1 (pIC50) (converted). Summed up: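 [14C]-glycine uptake read by scintillation proximity on a plate counter. IC50 from four-parameter logistic fit of dose-response data.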
Take `CC(Oc1ccc(C#N)c(Cl)c1C(=O)N1CCc2nn(-c3ccncc3)cc2C1)C(F)(F)F` (stereo not drawn) [Example 219, 2-Chloro-3-[2-(pyridin-4-yl)-2H 4H 5H 6H 7H-pyrazolo[4,3-c]pyridine-5-carbonyl]-4-[(1 1 1-trifluoropropan-2-yl)oxy]benzonitrile]: the IC50 is under 100 nM.
With `Cc1cc(F)cnc1-n1cc2c(n1)CN(C(=O)c1c(O[C@@H](C)C(F)(F)F)ccc(C#N)c1Cl)C2` [Example 299, 2-Chloro-3-[2-(5-fluoro-3-methylpyridin-2-yl)-2H 4H 5H 6H-pyrrolo[3,4-c]pyrazole-5-carbonyl]-4-{[(2S)-1 1 1-trifluoropropan-2-yl]oxy}benzonitrile], the IC50 is 100 to 1000 nM.
In the case of `COc1c(C#N)ccc(C2(F)CCCC2)c1C(=O)N1CCc2nn(-c3ccccc3)cc2C1` [Example 490, 4-(1-Fluorocyclopentyl)-2-methoxy-3-{2-phenyl-2H 4H 5H 6H 7H-pyrazolo[4,3-c]pyridine-5-carbonyl}benzonitrile] it was under 100 nM; in that of `Cc1cc(-n2cc3c(n2)CN(C(=O)c2cc(C#N)ccc2-c2cccc(C(F)(F)F)c2)C3)ccn1` [Example 565, 3-[2-(2-Methylpyridin-4-yl)-2H 4H 5H 6H-pyrrolo[3,4-c]pyrazole-5-carbonyl]-4-[3-(trifluoromethyl)phenyl]benzonitrile], 1000 to 10000 nM.
On to `CC(C)S(=O)(=O)c1ccc(O[C@@H](C)C(F)(F)F)c(C(=O)N2Cc3cn(-c4ccccc4)nc3C2)c1` [Example 90, 2-Phenyl-5-[5-(propane-2-sulfonyl)-2-{[(2S)-1 1 1-trifluoropropan-2-yl]oxy}benzoyl]-2H 4H 5H 6H-pyrrolo[3,4-c]pyrazole], for which the IC50 is 100 to 1000 nM.
Under `COc1c(C#N)ccc(C2(F)CCOCC2)c1C(=O)N1CCc2nn(-c3ccc(F)cc3)cc2C1` [Example 492] stands 100 to 1000 nM; under `CS(=O)(=O)c1ccc(-c2cccc(F)c2)c(C(=O)N2Cc3cnn(CC4CC4(F)F)c3C2)c1` (stereo not drawn) [Example 454, 1-[(2 2-Difluorocyclopropyl)methyl]-5-[2-(3-fluorophenyl)-5-methanesulfonylbenzoyl]-1H 4H 5H 6H-pyrrolo[3,4-c]pyrazole], 1000 to 10000 nM.
For the compound `COc1c(C#N)ccc(O[C@@H](C)C(F)(F)F)c1C(=O)N1Cc2cn(-c3cc(C)c(F)cn3)nc2C1` [Example 305, 3-[2-(5-Fluoro-4-methylpyridin-2-yl)-2H 4H 5H 6H-pyrrolo[3,4-c]pyrazole-5-carbonyl]-2-methoxy-4-{[(2 S)-1 1 1-trifluoropropan-2-yl]oxy}benzonitrile], the IC50 is under 100 nM.
With `C[C@H](Oc1ccc(C#N)c(Cl)c1C(=O)N1Cc2cn(-c3ccc(C(F)(F)F)nc3)nc2C1)C(F)(F)F` [Example 256, 2-Chloro-3-{2-[6-(trifluoromethyl)pyridin-3-yl]-2H 4H 5H 6H-pyrrolo[3,4-c]pyrazole-5-carbonyl}-4-{[(2S)-1 1 1-trifluoropropan-2-yl]oxy}benzonitrile], the IC50 was 100 to 1000 nM.
For `N#Cc1ccc(OCC(F)(F)F)c(C(=O)N2Cc3cn(-c4cncc(F)c4)nc3C2)c1Cl` [Example 25, 2-Chloro-3-[2-(5-fluoropyridin-3-yl)-2H 4H 5H 6H-pyrrolo[3,4-c]pyrazole-5-carbonyl]-4-(2 2 2-trifluoroethoxy)benzonitrile], the IC50 was 100 to 1000 nM.
Under `Cc1cc(F)cnc1-n1cc2c(n1)CN(C(=O)c1cc(C#N)ccc1O[C@@H](C)C(F)(F)F)C2` [Example 346, 3-[2-(5-Fluoro-3-methylpyridin-2-yl)-2H 4H 5H 6H-pyrrolo[3,4-c]pyrazole-5-carbonyl]-4-{[(2S)-1 1 1-trifluoropropan-2-yl]oxy}benzonitrile] stands 100 to 1000 nM; under `CCS(=O)(=O)c1ccc(O[C@@H](C)C(F)(F)F)c(C(=O)N2Cc3cn(-c4ccc(F)c(C(F)F)c4)nc3C2)c1` [Example 79, 2-[3-(Difluoromethyl)-4-fluorophenyl]-5-[5-(ethanesulfonyl)-2-{[(2S)-1 1 1-trifluoropropan-2-yl]oxy}benzoyl]-2H 4H 5H 6H-pyrrolo[3,4-c]pyrazole], under 100 nM.
`COc1c(C#N)ccc(O[C@@H](C)C(F)(F)F)c1C(=O)N1Cc2cn(-c3cncc(F)c3)nc2C1` [Example 250, 3-[2-(5-Flouropyridin-3-yl)-2H 4H 5H 6H-pyrrolo[3,4-c]pyrazole-5-carbonyl]-2-methoxy-4-{[(2S)-1 1 1-trifluoropropan-2-yl]oxy}benzonitrile]: the IC50 was under 100 nM.
Under `COc1cccc(-n2cc3c(n2)CCN(C(=O)c2c(OC(C)C(F)(F)F)ccc(C#N)c2Cl)C3)c1` (stereo not drawn) [Example 205, 2-Chloro-3-[2-(3-methoxyphenyl)-2H 4H 5H 6H 7H-pyrazolo[4,3-c]pyridine-5-carbonyl]-4-[(1 1 1-trifluoropropan-2-yl)oxy]benzonitrile] stands 100 to 1000 nM; under `COc1c(C#N)ccc(OCC2CC2)c1C(=O)N1Cc2cn(-c3cncc(F)c3)nc2C1` [Example 319, 4-(Cyclopropylmethoxy)-3-[2-(5-fluoropyridin-3-yl)-2H 4H 5H 6H-pyrrolo[3,4-c]pyrazole-5-carbonyl]-2-methoxybenzonitrile], under 100 nM; under `COc1c(C#N)ccc(C2(F)CCCC2)c1C(=O)N1Cc2cn(-c3cncc(F)c3)nc2C1` [Example 377, 4-(1-Fluorocyclopentyl)-3-[2-(5-fluoropyridin-3-yl)-2H 4H 5H 6H-pyrrolo[3,4-c]pyrazole-5-carbonyl]-2-methoxybenzonitrile], under 100 nM.
Regarding `CS(=O)(=O)c1ccc(-c2cccc(F)c2)c(C(=O)N2Cc3cn(CC4CC4)nc3C2)c1` [Example 449, 2-(Cyclopropylmethyl)-5-[2-(3-fluorophenyl)-5-methanesulfonylbenzoyl]-2H 4H 5H 6H-pyrrolo[3,4-c]pyrazole], the IC50 was under 100 nM.
For `Cn1ncc2c1CN(C(=O)c1cc(S(C)(=O)=O)ccc1OCC1CC1)C2` [Example 157, 5-[2-(Cyclopropylmethoxy)-5-methanesulfonylbenzoyl]-1-methyl-1H 4H 5H 6H-pyrrolo[3,4-c]pyrazole], the IC50 is over 10000 nM.
`COc1c(C#N)ccc(C2CCCC2)c1C(=O)N1CCc2nn(-c3ccc(F)cc3)cc2C1` [Example 486, 4-Cyclopentyl-3-[2-(4-fluorophenyl)-2H 4H 5H 6H 7H-pyrazolo[4,3-c]pyridine-5-carbonyl]-2-methoxybenzonitrile]: the IC50 is under 100 nM.
With `CCOc1c2c(nn1-c1ccc(F)cc1)CCN(C(=O)c1c(OC(C)C(F)(F)F)ccc(C#N)c1Cl)C2` (stereo not drawn) [Example 184, 2-Chloro-3-[3-ethoxy-2-(4-fluorophenyl)-2H 4H 5H 6H 7H-pyrazolo[4,3-c]pyridine-5-carbonyl]-4-[(1 1 1-trifluoropropan-2-yl)oxy]benzonitrile], the IC50 was 1000 to 10000 nM.
As for `CC(Oc1ccc(C#N)c(Cl)c1C(=O)N1CCc2nn(C)c(C(F)(F)F)c2C1)C(F)(F)F` (stereo not drawn) [Example 186, 2-Chloro-3-[2-methyl-3-(trifluoromethyl)-2H 4H 5H 6H 7H-pyrazolo[4,3-c]pyridine-5-carbonyl]-4-[(1 1 1-trifluoropropan-2-yl)oxy]benzonitrile], the IC50 was 1000 to 10000 nM.
As for `CC(C)Oc1ccc(C#N)cc1C(=O)N1Cc2cn(-c3ccnc(C4CC4)c3)nc2C1` [Example 405, 3-[2-(2-Cyclopropylpyridin-4-yl)-2H 4H 5H 6H-pyrrolo[3,4-c]pyrazole-5-carbonyl]-4-(propan-2-yloxy)benzonitrile], the IC50 is under 100 nM.
`CCS(=O)(=O)c1ccc(N2CCC(F)(F)CC2)c(C(=O)N2Cc3cn(-c4cncc(F)c4)nc3C2)c1` [Example 112]: the IC50 was under 100 nM.
Regarding `CC(C)S(=O)(=O)c1ccc(O[C@@H](C)C(F)(F)F)c(C(=O)N2Cc3cn(-c4ccccc4F)nc3C2)c1` [Example 88, 2-(2-Fluorophenyl)-5-[5-(propane-2-sulfonyl)-2-{[(2S)-1 1 1-trifluoropropan-2-yl]oxy}benzoyl]-2H 4H 5H 6H-pyrrolo[3,4-c]pyrazole], the IC50 is 100 to 1000 nM.
Turning to `CC(Oc1ccc(C(=O)N2CCC2)c(Cl)c1C(=O)N1CCc2nn(-c3ccc(F)cc3)cc2C1)C(F)(F)F` (stereo not drawn) [Example 6, 1-{2-Chloro-3-[2-(4-fluorophenyl)-2H 4H 5H 6H 7H-pyrazolo[4,3-c]pyridine-5-carbonyl]-4-[(1 1 1-trifluoropropan-2-yl)oxy]benzoyl}azetidine], the IC50 was over 10000 nM.
For `C[C@H](Oc1ccc(S(C)(=O)=O)cc1C(=O)N1Cc2cn(-c3ccc(F)cc3F)nc2C1)C(F)(F)F` [Example 38, 2-(2 4-Difluorophenyl)-5-(5-methanesulfonyl-2-{[(2S)-1 1 1-trifluoropropan-2-yl]oxy}benzoyl)-2H 4H 5H 6H-pyrrolo[3,4-e]pyrazole], the IC50 is under 100 nM.
In the case of `C[C@H](Oc1ccc(C#N)cc1C(=O)N1Cc2cn(CC3CCOCC3)nc2C1)C(F)(F)F` [Example 396, 3-[2-(Oxan-4-ylmethyl)-2H 4H 5H 6H-pyrrolo[3,4-c]pyrazole-5-carbonyl]-4-{[(2S)-1 1 1-trifluoropropan-2-yl]oxy}benzonitrile], the IC50 was 100 to 1000 nM.

The values above are taken from patent US9708334B2, “Substituted 2,4,5,6-tetrahydropyrrolo[3,4-c]pyrazole and 4,5,6,7-tetrahydro-2H-pyrazolo[4,3-c]pyridine compounds as GlyT1 inhibitors” (DART NEUROSCIENCE (CAYMAN) LTD., priority 2014, dated 2017).
